From patent publication US10730872B2, “Pesticidally active heterocyclic derivatives with sulphur containing sustitutents” (SYNGENTA PARTICIPATIONS AG, priority 2015, dated 2020)

Key:
Format in all cases: in vivo
Diabrotica balteata = Diabrotica balteata (Corn Root Worm); conditions: 96 h, application rate of 200 ppm, sprayed maize sprouts, L2 larvae, 4 days after infestation, read-out: effect in at least one of the two categories (mortality or growth inhibition)
Experimental: Maize sprouts placed onto an agar layer in 24-well microtiter plates were treated with aqueous test solutions prepared from 10,000 ppm DMSO stock solutions by spraying. After drying, the plates were infested with L2 larvae (6 to 10 per well). The samples were assessed for mortality and growth inhibition in comparison to untreated samples 4 days after infestation.

Plutella xylostella = Plutella xylostella (Diamond Back Moth); conditions: 120 h, application rate of 200 ppm, artificial diet, L2 larvae, 5 days after infestation, read-out: effect in at least one of the two categories (mortality or growth inhibition)
Experimental: 24-well microtiter plates with artificial diet were treated with aqueous test solutions prepared from 10,000 ppm DMSO stock solutions by pipetting. After drying, the plates were infested with L2 larvae (10 to 15 per well). The samples were assessed for mortality and growth inhibition in comparison to untreated samples 5 days after infestation.

Spodoptera littoralis = Spodoptera littoralis (Egyptian Cotton Leaf Worm), sprayed cotton leaf discs; conditions: foliar, 72 h, application rate of 200 ppm, L1 larvae, 3 days after infestation
Experimental: Cotton leaf discs were placed onto agar in 24-well microtiter plates and sprayed with aqueous test solutions prepared from 10,000 ppm DMSO stock solutions. After drying the leaf discs were infested with five L1 larvae. The samples were assessed for mortality, anti-feeding effect, and growth inhibition in comparison to untreated samples 3 days after infestation. Control of Spodoptera littoralis by a test sample is given when at least one of the categories mortality, anti-feedant effect, and growth inhibition is higher than the untreated sample.

Euschistus heros = Euschistus heros (Neotropical Brown Stink Bug); conditions: 120 h, application rate of 200 ppm, sprayed soybean leaves, N2 nymphs, 5 days after infestation, read-out: effect in at least one of the two categories (mortality or growth inhibition)
Experimental: Soybean leaves on agar in 24-well microtiter plates were sprayed with aqueous test solutions prepared from 10,000 ppm DMSO stock solutions. After drying the leaves were infested with N2 nymphs. The samples were assessed for mortality and growth inhibition in comparison to untreated samples 5 days after infestation.

Myzus persicae [1] = assay: Myzus persicae (Green Peach Aphid). Systemic Activity; conditions: 144 h, test rate of 24 ppm, roots of infested pea seedlings in test solution, 6 days
Experimental: Roots of pea seedlings infested with an aphid population of mixed ages were placed directly into aqueous test solutions prepared from 10,000 DMSO stock solutions. The samples were assessed for mortality 6 days after placing seedlings into test solutions.

Bemisia tabaci = Bemisia tabaci (Cotton White Fly): Feeding/Contact Activity; conditions: foliar, 144 h, application rate of 200 ppm, sprayed cotton leaf discs, adult white flies, 6 days after incubation
Experimental: Cotton leaf discs were placed on agar in 24-well microtiter plates and sprayed with aqueous test solutions prepared from 10,000 ppm DMSO stock solutions. After drying the leaf discs were infested with adult white flies. The samples were checked for mortality 6 days after incubation.

Myzus persicae [2] = assay: Myzus persicae (Green Peach Aphid): Feeding/Contact Activity; conditions: foliar, 144 h, application rate of 200 ppm, sprayed sunflower leaf discs, aphid population of mixed ages, 6 days after infestation
Experimental: Sunflower leaf discs were placed onto agar in a 24-well microtiter plate and sprayed with aqueous test solutions prepared from 10,000 ppm DMSO stock solutions. After drying, the leaf discs were infested with an aphid population of mixed ages. The samples were assessed for mortality 6 days after infestation.

CCn1c(C(F)(F)F)cc2nc(-c3nc(N(C)CC(F)(F)F)ccc3S(=O)(=O)CC)n(C)c2c1=O [Compound A33]
≥ 80%: effect mortality or growth inhibition at 200 ppm (Diabrotica balteata) | percent effect (mortality or growth inhibition) at 200 ppm (Plutella xylostella) | percent control (mortality, anti-feeding effect or growth inhibition) at 200 ppm (Spodoptera littoralis)

CCn1c(C(F)(F)F)cc2nc(-c3ncc(N(C)N(C)C(=O)C4CC4)cc3S(=O)(=O)CC)n(C)c2c1=O [Compound A22, N′-[6-[5-ethyl-3-methyl-4-oxo-6-(trifluoromethyl)imidazo[4,5-c]pyridin-2-yl]-5-ethylsulfonyl-3-pyridyl]-N,N′-dimethyl-cyclopropanecarbohydrazide]
≥ 80%: percent effect (mortality or growth inhibition) at 200 ppm (Euschistus heros) | mortality at 24 ppm (Myzus persicae [1]) | percent effect (mortality or growth inhibition) at 200 ppm (Plutella xylostella) | percent control (mortality, anti-feeding effect or growth inhibition) at 200 ppm (Spodoptera littoralis)

CCn1c(C(F)(F)F)cc2nc(-c3ncc(N(C)S(=O)(=O)C4CC4)cc3S(=O)(=O)CC)n(C)c2c1=O [Compound A37, N-[6-[5-ethyl-3-methyl-4-oxo-6-(trifluoromethyl)imidazo[4,5-c]pyridin-2-yl]-5-ethylsulfonyl-3-pyridyl]-N-methyl-cyclopropanesulfonamide]
≥ 80%: mortality at 200 ppm (Bemisia tabaci) | effect mortality or growth inhibition at 200 ppm (Diabrotica balteata) | percent effect (mortality or growth inhibition) at 200 ppm (Euschistus heros) | percent effect (mortality or growth inhibition) at 200 ppm (Plutella xylostella) | percent control (mortality, anti-feeding effect or growth inhibition) at 200 ppm (Spodoptera littoralis)

CCn1c(C(F)(F)F)cc2nc(-c3nc(C(C)=O)ccc3S(=O)(=O)CC)n(C)c2c1=O [Compound A70, 2-(6-acetyl-3-ethylsulfonyl-2-pyridyl)-5-ethyl-3-methyl-6-(trifluoromethyl)imidazo[4,5-c]pyridin-4-one]
≥ 80%: percent effect (mortality or growth inhibition) at 200 ppm (Plutella xylostella)

CCn1c(C(F)(F)F)cc2nc(-c3ncc(C(=O)N(C)C4CC4)cc3S(=O)(=O)CC)n(C)c2c1=O [Compound A17, N-cyclopropyl-6-[5-ethyl-3-methyl-4-oxo-6-(trifluoromethyl)imidazo[4,5-c]pyridin-2-yl]-5-ethylsulfonyl-N-methyl-pyridine-3-carboxamide]
≥ 80%: percent effect (mortality or growth inhibition) at 200 ppm (Euschistus heros) | mortality at 24 ppm (Myzus persicae [1]) | percent effect (mortality or growth inhibition) at 200 ppm (Plutella xylostella)

CCS(=O)(=O)c1cc(C)c(N)nc1-c1nc2cc(C(F)(F)F)n(C3CC3)c(=O)c2n1C [Compound A49, 2-(6-amino-5-methyl-3-ethylsulfonyl-2-pyridyl)-5-cyclopropyl-3-methyl-6-(trifluoromethyl)imidazo[4,5-c]pyridin-4-one]
≥ 80%: mortality at 200 ppm (Bemisia tabaci) | effect mortality or growth inhibition at 200 ppm (Diabrotica balteata) | mortality at 200 ppm (Myzus persicae [2]) | mortality at 24 ppm (Myzus persicae [1]) | percent effect (mortality or growth inhibition) at 200 ppm (Plutella xylostella) | percent control (mortality, anti-feeding effect or growth inhibition) at 200 ppm (Spodoptera littoralis)

CCn1c(C(F)(F)F)cc2nc(-c3ncc(NC4(C#N)CC4)cc3[S+]([O-])CC)n(C)c2c1=O (centres unmarked) [Compound A57, 1-[[6-[5-ethyl-3-methyl-4-oxo-6-(trifluoromethyl)imidazo[4,5-c]pyridin-2-yl]-5-ethylsulfinyl-3-pyridyl]amino]cyclopropanecarbonitrile]
≥ 80%: effect mortality or growth inhibition at 200 ppm (Diabrotica balteata) | percent effect (mortality or growth inhibition) at 200 ppm (Plutella xylostella) | percent control (mortality, anti-feeding effect or growth inhibition) at 200 ppm (Spodoptera littoralis)

CCn1c(C(F)(F)F)cc2nc(-c3ncc(C(=O)NC4(C#N)CC4)cc3S(=O)(=O)CC)n(C)c2c1=O [Compound A25, N-(1-cyanocyclopropyl)-6-[5-ethyl-3-methyl-4-oxo-6-(trifluoromethyl)imidazo[4,5-c]pyridin-2-yl]-5-ethylsulfonyl-pyridine-3-carboxamide]
≥ 80%: percent effect (mortality or growth inhibition) at 200 ppm (Euschistus heros) | percent control (mortality, anti-feeding effect or growth inhibition) at 200 ppm (Spodoptera littoralis)

CCn1c(C(F)(F)F)cc2nc(-c3ncc(NC(=O)C4(C#N)CC4)cc3S(=O)(=O)CC)n(C)c2c1=O [Compound A55, 1-cyano-N-[6-[5-ethyl-3-methyl-4-oxo-6-(trifluoromethyl)imidazo[4,5-c]pyridin-2-yl]-5-ethylsulfonyl-3-pyridyl]cyclopropanecarboxamide]
≥ 80%: mortality at 200 ppm (Myzus persicae [2]) | mortality at 24 ppm (Myzus persicae [1]) | percent effect (mortality or growth inhibition) at 200 ppm (Plutella xylostella) | percent control (mortality, anti-feeding effect or growth inhibition) at 200 ppm (Spodoptera littoralis)

CCn1c(C(F)(F)F)cc2nc(-c3ncc(N(C)/C=N/OC)cc3S(=O)(=O)CC)n(C)c2c1=O [Compound A27, N-[6-[5-ethyl-3-methyl-4-oxo-6-(trifluoromethyl)imidazo[4,5-c]pyridin-2-yl]-5-ethylsulfonyl-3-pyridyl]-N′-methoxy-N-methyl-formamidine]
≥ 80%: percent effect (mortality or growth inhibition) at 200 ppm (Plutella xylostella) | percent control (mortality, anti-feeding effect or growth inhibition) at 200 ppm (Spodoptera littoralis)

CCn1c(C(F)(F)F)cc2nc(-c3ncc(NC4CC4)cc3[S+]([O-])CC)n(C)c2c1=O (centres unmarked) [Compound A58, 2-[5-(cyclopropylamino)-3-ethylsulfinyl-2-pyridyl]-5-ethyl-3-methyl-6-(trifluoromethyl)imidazo[4,5-c]pyridin-4-one]
≥ 80%: effect mortality or growth inhibition at 200 ppm (Diabrotica balteata)

CCn1c(C(F)(F)F)cc2nc(-c3nc(N)c(C#N)cc3S(=O)(=O)CC)n(C)c2c1=O [Compound A72]
≥ 80%: percent effect (mortality or growth inhibition) at 200 ppm (Euschistus heros) | mortality at 24 ppm (Myzus persicae [1]) | percent effect (mortality or growth inhibition) at 200 ppm (Plutella xylostella) | percent control (mortality, anti-feeding effect or growth inhibition) at 200 ppm (Spodoptera littoralis)

CCS(=O)(=O)c1ccc(NOC)nc1-c1nc2cc(C(F)(F)F)n(C3CC3)c(=O)c2n1C [Compound A46, 5-cyclopropyl-2-[3-ethylsulfonyl-6-(methoxyamino)-2-pyridyl]-3-methyl-6-(trifluoromethyl)imidazo[4,5-c]pyridin-4-one]
≥ 80%: effect mortality or growth inhibition at 200 ppm (Diabrotica balteata) | percent effect (mortality or growth inhibition) at 200 ppm (Euschistus heros) | percent effect (mortality or growth inhibition) at 200 ppm (Plutella xylostella) | percent control (mortality, anti-feeding effect or growth inhibition) at 200 ppm (Spodoptera littoralis)

CCn1c(C(F)(F)F)cc2nc(-c3ncc(C(=O)NCC#N)cc3S(=O)(=O)CC)n(C)c2c1=O [Compound A28, N-(cyanomethyl)-6-[5-ethyl-3-methyl-4-oxo-6-(trifluoromethyl)imidazo[4,5-c]pyridin-2-yl]-5-ethylsulfonyl-pyridine-3-carboxamide]
≥ 80%: percent effect (mortality or growth inhibition) at 200 ppm (Euschistus heros) | mortality at 200 ppm (Myzus persicae [2]) | mortality at 24 ppm (Myzus persicae [1]) | percent effect (mortality or growth inhibition) at 200 ppm (Plutella xylostella)

CCn1c(C(F)(F)F)cc2nc(-c3nc(C(=O)N(C)C4CC4)ccc3S(=O)(=O)CC)n(C)c2c1=O [Compound A18, N-cyclopropyl-6-[5-ethyl-3-methyl-4-oxo-6-(trifluoromethyl)imidazo[4,5-c]pyridin-2-yl]-5-ethylsulfonyl-N-methyl-pyridine-2-carboxamide]
≥ 80%: mortality at 200 ppm (Bemisia tabaci) | mortality at 200 ppm (Myzus persicae [2]) | mortality at 24 ppm (Myzus persicae [1]) | percent effect (mortality or growth inhibition) at 200 ppm (Plutella xylostella) | percent control (mortality, anti-feeding effect or growth inhibition) at 200 ppm (Spodoptera littoralis)

CCn1c(C(F)(F)F)cc2nc(-c3nc(Br)c(N)cc3S(=O)(=O)CC)n(C)c2c1=O [Compound A54, 2-(5-amino-6-bromo-3-ethylsulfonyl-2-pyridyl)-5-ethyl-3-methyl-6-(trifluoromethyl)imidazo[4,5-c]pyridin-4-one]
≥ 80%: effect mortality or growth inhibition at 200 ppm (Diabrotica balteata) | percent effect (mortality or growth inhibition) at 200 ppm (Plutella xylostella) | percent control (mortality, anti-feeding effect or growth inhibition) at 200 ppm (Spodoptera littoralis)

CCS(=O)(=O)c1ccc(NC(=O)OC(C)(C)C)nc1-c1nc2cc(C(F)(F)F)n(C3CC3)c(=O)c2n1C [Compound A63, Tert-butyl N-[6-[5-cyclopropyl-3-methyl-4-oxo-6-(trifluoromethyl)imidazo[4,5-c]pyridin-2-yl]-5-ethylsulfonyl-2-pyridyl]carbamate]
≥ 80%: mortality at 200 ppm (Bemisia tabaci) | effect mortality or growth inhibition at 200 ppm (Diabrotica balteata) | percent effect (mortality or growth inhibition) at 200 ppm (Plutella xylostella) | percent control (mortality, anti-feeding effect or growth inhibition) at 200 ppm (Spodoptera littoralis)

CCn1c(C(F)(F)F)cc2nc(-c3ncc(NS(=O)(=O)C4CC4)cc3S(=O)(=O)CC)n(C)c2c1=O [Compound A36, N-[6-[5-ethyl-3-methyl-4-oxo-6-(trifluoromethyl)imidazo[4,5-c]pyridin-2-yl]-5-ethylsulfonyl-3-pyridyl]cyclopropanesulfonamide]
≥ 80%: mortality at 200 ppm (Myzus persicae [2])
